{
  "source": "patent US5326774A",
  "about": "“Pharmaceutical preparation of antihypertensive, antianginal, antiarrhythmic and antiglaucomic action” (priority 1992, dated 1994)",
  "key": {"in vivo": {"test": "in vivo", "settings": "mouse", "text": "LD50 values were estimated by using the Litchfield-Wilckoxon method."}, "arterial pressure [1]": {"system": "arterial pressure", "test": "Antihypertensive effect in rats with renovascular hypertension", "assay_type": "in vivo, rat", "description": ". In rats suffering from renovascular hypertension the compound of the invention in the dosage of 10 mg/kg (injected intramuscularly) lowered with confidence the arterial pressure (from 137±3 to 117±5 mm of Hg column) 30 minutes after being administered. The 2-week course of the administration of the compound according to the invention (10 mg/kg 1 time a day) caused the antihypertensive effect to be enhanced. By the end of the second week the arterial pressure was 110±8.6 mm Hg. […]"}, "myocardium necrosis": {"system": "myocardium necrosis", "test": "Myocardium necrosis in rats with labile coronary occlusion", "assay_type": "in vivo, rat", "settings": "for Mass and size myocardium (% to the total area of aortic ventricle): control 31.2 ± 1.96; for Area of myocardium necrosis (% to the total area of aortic ventricle): control 33.5 ± 2.5"}, "[2]": {"system": "mesaton-initiated pressor effect", "test": "Mesaton-initiated pressor effect in cats", "set-up": "species or system cat", "settings": "in vivo (rats and cats), i.v.", "description": "The same tests were carried out on cats."}, "β2-adrenoceptor": {"target": "T1, β2-adrenoceptor (Rattus norvegicus, UniProt P10608)", "T1 construct": "positive chronotropic and depressor effects in the anesthetized rats; from tissue; host or cells: whole living rat (blood pressure response to isadrin); endogenous receptor", "T1 sequence (P10608 whole entry)": "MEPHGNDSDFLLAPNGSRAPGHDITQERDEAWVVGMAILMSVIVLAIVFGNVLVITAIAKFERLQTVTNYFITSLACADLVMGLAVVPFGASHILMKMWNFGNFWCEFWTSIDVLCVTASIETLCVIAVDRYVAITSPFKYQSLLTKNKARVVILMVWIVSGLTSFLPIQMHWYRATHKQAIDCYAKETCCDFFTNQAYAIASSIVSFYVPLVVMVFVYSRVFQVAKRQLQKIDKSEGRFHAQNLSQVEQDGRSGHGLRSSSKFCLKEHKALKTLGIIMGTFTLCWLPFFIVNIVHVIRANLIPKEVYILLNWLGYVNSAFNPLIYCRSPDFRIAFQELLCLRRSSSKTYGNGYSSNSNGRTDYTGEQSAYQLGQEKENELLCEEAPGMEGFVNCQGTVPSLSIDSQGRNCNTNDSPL", "test": "Inhibition of isadrin's depressor effect, i.v., anesthetized rats", "assay_type": "in vivo"}, "arterial pressure [3]": {"system": "arterial pressure", "test": "Arterial pressure in anesthetized rats, i.v.", "assay_type": "in vivo, rat", "settings": "for arterial pressure: control 159±9", "description": "β-adrenoceptor blocking activity of the active principle of the pharmaceutical preparation of the invention was studied. […]. The test substances were injected to several groups of animals (6-10 individuals each) in the graded doses of 0.001, 0.0025, 0.01, 0.025, and 0.1 mg/kg.\nFrom the dosage of […] it gave rise to the lowering of arterial pressure (from 159±9 in the control to 141±11, 127±10 and 123 ±11 mm Hg in the dosages of 0.01, 0.025 and 0.1 mg/kg). From the dosage of 0.0025 mg/kg the compound of the invention gave rise to the dose-related suppression of the isadrin-initiated depressor effect (by 12,63, 82 and 90% in doses of 0.0025, 0.01, 0.025 and 0.1 mg/kg) and, starting from the dosage of […], a positive chronotropic (by 25, 46 and 78% in doses of 0.01, 0.025 said 0.1 mg/kg, respectively) effect."}},
  "data": [
    {"smiles": "Cc1noc(COc2ccccc2OCC(O)CNC(C)(C)C)n1.Cl", "note": "(stereo not shown) [Compound of the invention, 3-methyl-5-[2-(3-tert.butylamino-2-hydroxypropoxy)phenoxymethyl]-1,2,4-oxadiazole hydrochloride]", "values": [
      {"measurement": "lower toxicity compared with propranolol, oxprenolol and pindolol", "setting": "albino mice; i.v.", "result": "2-4 times"},
      {"measurement": "lower toxicity than propranolol and oxprenolol", "setting": "albino mice; oral", "result": "2-3 times"},
      {"measurement": "LD50 at 72 h", "setting": "in vivo; iv", "result": 72.5, "unit": "mg/kg"},
      {"measurement": "LD50 at 72 h", "setting": "in vivo; po", "result": 600, "unit": "mg/kg"},
      {"measurement": "arterial pressure", "setting": "arterial pressure [1]; 10 mg/kg 1 time a day, end of second week", "result": "110±8.6", "unit": "mm Hg"},
      {"measurement": "arterial pressure", "setting": "arterial pressure [1]; 10 mg/kg i.m., 30 minutes, from 137±3", "result": "117±5 mm of Hg column"},
      {"measurement": "efficacy on long-time use", "setting": "arterial pressure [1]; long time use", "result": "its efficacy is not becoming low (no drug addiction)"},
      {"measurement": "Mass and size myocardium (% to the total area of aortic ventricle)", "setting": "myocardium necrosis; 1 mg/kg", "result": 31.5, "unit": "%"},
      {"measurement": "Area of myocardium necrosis (% to the total area of aortic ventricle)", "setting": "myocardium necrosis; 1 mg/kg", "result": 30, "unit": "%"},
      {"measurement": "aortic ventricle necrosis in mass and size", "setting": "myocardium necrosis; 5 mg/kg i.v.", "result": "decreasing in the aortic ventricle necrosis in mass and size"},
      {"measurement": "Mass and size myocardium (% to the total area of aortic ventricle)", "setting": "myocardium necrosis; 5 mg/kg, P < 0.05", "result": "23.6 ± 3.2", "unit": "%"},
      {"measurement": "Area of myocardium necrosis (% to the total area of aortic ventricle)", "setting": "myocardium necrosis; 5 mg/kg, P < 0.05", "result": "24.3 ± 3.4", "unit": "%"},
      {"measurement": "adrenoceptor blocking activity compared with labetalol", "setting": "[2]", "result": "did not differ from labetalol"},
      {"measurement": "suppression of the isadrin-initiated depressor effect", "setting": "β2-adrenoceptor; 0.025 mg/kg i.v.", "result": 82, "unit": "%"},
      {"measurement": "suppression of the isadrin-initiated depressor effect", "setting": "β2-adrenoceptor; 0.1 mg/kg i.v.", "result": 90, "unit": "%"},
      {"measurement": "β2-adrenoceptor blocking activity, times as high as labetalol", "setting": "β2-adrenoceptor; comparison of ED50, rats i.v.", "result": 412, "unit": "times"},
      {"measurement": "β2-adrenoceptor blocking activity, times as high as oxprenolol", "setting": "β2-adrenoceptor; comparison of ED50, rats i.v.", "result": 4, "unit": "times"},
      {"measurement": "β2-adrenoceptor blocking activity, times as high as pindolol", "setting": "β2-adrenoceptor; comparison of ED50, rats i.v.", "result": 2, "unit": "times"},
      {"measurement": "β2-adrenoceptor blocking activity, times as high as propranolol", "setting": "β2-adrenoceptor; comparison of ED50, rats i.v.", "result": 11, "unit": "times"},
      {"measurement": "dosage from which isadrin depressor effect suppressed", "setting": "β2-adrenoceptor; i.v.", "result": 0.0025, "unit": "mg/kg"},
      {"measurement": "ED50", "setting": "β2-adrenoceptor; rat, iv, read-out: Dosage inhibiting isadrin's depressor effect by 50%, ED50", "result": "8 ± 0.7", "unit": "µg/kg"},
      {"measurement": "arterial pressure", "setting": "arterial pressure [3]; 0.01 mg/kg i.v.", "result": "141±11", "unit": "mm Hg"},
      {"measurement": "arterial pressure", "setting": "arterial pressure [3]; 0.025 mg/kg i.v.", "result": "127±10", "unit": "mm Hg"},
      {"measurement": "arterial pressure", "setting": "arterial pressure [3]; 0.1 mg/kg i.v.", "result": "123 ±11", "unit": "mm Hg"},
      {"measurement": "minimal effective dose", "setting": "arterial pressure [3]; Rattus norvegicus, iv, read-out: dosage from which arterial pressure lowered", "result": 0.1, "unit": "mg/kg"}
    ]}
  ]
}
